The values below come from the supplement of paper PMC10307832.

Assay in all cases: relative viability (nuclei count vs DMSO), 5 days (fraction); higher = more cells survive
Compound in test [1]: O=C(Nc1cc(C(F)(F)F)cc(C(F)(F)F)c1)c1cc(Cl)ccc1O [IMD-0354] + Cc1nc(NC(=O)N2CCC[C@H]2C(N)=O)sc1-c1ccnc(C(C)(C)C(F)(F)F)c1 [Alpelisib] (partner 2 µM)
The procedure, abridged:
(§1)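 Nuclei were stained with Hoechst during a one-step fixation (final 0.05% Triton X-100, 1% formaldehyde, 1 ug/ml Hoechst) carried out 5 days after dosing, then counted on 4× images. The cells, lung cancer lines in 1536-well plates, had been dosed by pin tool the day after seeding with one drug alone or a fixed anchor-drug dose plus five library-drug doses (not always all listed) in √10 steps. Relative viability is the nuclei count in treated wells divided by that in vehicle wells, and each value is the median of duplicate plates.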

Compound in test [2]: Cc1cnc(CNC(=O)c2c(=O)c3ccc(N4CCCN(C)CC4)nc3n3c2sc2ccccc23)cn1 [CX-5461] + CC(=O)Nc1cccc(-n2c(=O)n(C3CC3)c(=O)c3c(Nc4ccc(I)cc4F)n(C)c(=O)c(C)c32)c1 [Trametinib] (partner 0.02 µM)
The procedure, abridged:
as §1

Compound in test [3]: O=C(Nc1cc(C(F)(F)F)cc(C(F)(F)F)c1)c1cc(Cl)ccc1O [IMD-0354] + C[C@@H](Oc1cc(-c2cnn(C3CCNCC3)c2)cnc1N)c1c(Cl)ccc(F)c1Cl [Crizotinib] (partner 1 µM)
The procedure, abridged:
as §1

Compound in test [4]: Cc1cnc(CNC(=O)c2c(=O)c3ccc(N4CCCN(C)CC4)nc3n3c2sc2ccccc23)cn1 [CX-5461] + Nc1ncn([C@H]2C[C@H](O)[C@@H](CO)O2)c(=O)n1 [Decitabine] (partner 2 µM)
The procedure, abridged: as §1

For the cell line UMC-11, the relative viability in test [1] (first compound 0.04 µM) came to 0.945; in test [1] (first compound 0.1265 µM) it was 0.973; in test [1] (first compound 0.4 µM), 0.598; in test [1] (first compound 1.265 µM), 0.235; in test [1] (first compound 4 µM), 0.281; in test [2] (first compound 0.01 µM), 0.685. The relative viability in test [2] (first compound 0.03162 µM) was 0.769; in test [2] (first compound 0.1 µM), 0.762; in test [2] (first compound 0.3162 µM), 0.317; in test [2] (first compound 1 µM) it was 0.249; in test [3] (first compound 0.04 µM), 0.701; in test [3] (first compound 0.1265 µM), 0.578. For the same cell line, the relative viability in test [3] (first compound 0.4 µM) was found to be 0.432; in test [3] (first compound 1.265 µM), 0.263; in test [3] (first compound 4 µM), 0.267; in test [4] (first compound 0.01 µM), 0.611; in test [4] (first compound 0.03162 µM), 0.464; in test [4] (first compound 0.1 µM), 0.497. The relative viability in test [4] (first compound 0.3162 µM) turned out to be 0.301; in test [4] (first compound 1 µM), 0.36.
